Laboratory results taken from BigSolDB 2.1.

COC1=CC(=O)C[C@@H](C)[C@]12Oc1c(Cl)c(OC)cc(OC)c1C2=O
solubility (mole fraction)
Conditions | 278.15 K | 283.15 K | 288.15 K | 293.15 K | 298.15 K | 303.15 K | 308.15 K | 313.15 K | 318.15 K | 323.15 K
in DMF | 0.00484 | 0.00541 | 0.0061 | 0.00703 | 0.00811 | 0.00933 | 0.0106 | 0.012 | 0.0136 | 0.0155
in NMP | 0.0324 | 0.0344 | 0.0369 | 0.0394 | 0.0425 | 0.045 | 0.0479 | 0.0511 | 0.0541 | 0.0573
in acetonitrile | 0.00331 | 0.00369 | 0.00418 | 0.00473 | 0.00536 | 0.00611 | 0.00697 | 0.00795 | 0.00899 | 0.0102
in ethanol | 0.000218 | 0.000255 | 0.000303 | 0.00037 | 0.000446 | 0.000542 | 0.00065 | 0.000779 | 0.000928 | 0.00112
in methanol | 0.000246 | 0.00028 | 0.000332 | 0.000413 | 0.000517 | 0.000632 | 0.00077 | 0.000929 | 0.00111 | 0.00133
in water | 1.93e-07 | 2.5e-07 | 3.08e-07 | 3.86e-07 | 4.7e-07 | 5.7e-07 | 7.18e-07 | 8.91e-07 | 1.1e-06 | 1.36e-06
